Reference: ChEMBL document CHEMBL1201862, “PubChem BioAssay data set” (2004)
The source made the active and inactive calls.

Legend:
[1] = growth inhibition of replicating M. tuberculosis, dose response, counter-screen, dry powder, IC90 (AID 651617); type: functional; settings: Mycobacterium tuberculosis
[2] = inhibitors of non-replicating M. tuberculosis, dose response, luciferase, dry powder (AID 651619); type: functional; settings: Mycobacterium tuberculosis
[3] = inhibitors of non-replicating M. tuberculosis, dose response, luciferase, dry powder (AID 651620); type: functional; settings: Mycobacterium tuberculosis
[4] = growth inhibition of yeast DHODH-expressing 3D7 parasites – SYBR Green, dry powder samples, dose response (AID 1159570); type: functional, cell-based;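 also: parasite growth measured after 72 hours of compound exposure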
[5] = Dd2 parasite growth inhibition in erythrocytes – SYBR Green, dry powder samples, set 9, dose response (AID 1159568); type: functional, cell-based
[6] = T. cruzi growth inhibition in host cells, dose response, cell-based, plate reader, dry powder, set 2 (AID 652275); type: functional
[7] = P. falciparum Dd2 growth inhibitors, dose response, SYBR Green, cherry-picked samples (AID 1159567); type: functional, cell-based
[8] = Dd2 malaria parasite growth inhibition potency – SYBR Green, dry powder samples, dose response (AID 1159566); type: functional, cell-based;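 also: potency for growth inhibition with lower SYBR green DNA signal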
[9] = growth inhibition of PfATP4-mutant resistant parasites – NITD609-resistant line, SYBR Green, dry powder, dose response (AID 1159571); type: functional, cell-based;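 also: parasites synchronized at ring stage by sorbitol before testing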
[10] = target: NAD-dependent protein deacylase sirtuin-5, mitochondrial (Homo sapiens, UniProt Q9NXA8); assay: sirtuin-5 deacylation blockers, concentration series – biochemical, fluorescence imaging, cherry-pick, set 5, dose response (AID 720591);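 also: desuccinylation of succinyl peptide AMC substrate read as fluorescence after trypsin release; potency of inhibitors that lower fluorescence and may act on trypsin instead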
CAAX prenyl protease 2 = target: T1, CAAX prenyl protease 2 (Homo sapiens, UniProt Q9Y256); assay: inhibition of Ras-converting CAAX protease Rce1 – biochemical, yeast membranes, quenched-peptide fluorescence, cherry-pick, dose response (AID 588849)
T1 sequence (Q9Y256 whole entry): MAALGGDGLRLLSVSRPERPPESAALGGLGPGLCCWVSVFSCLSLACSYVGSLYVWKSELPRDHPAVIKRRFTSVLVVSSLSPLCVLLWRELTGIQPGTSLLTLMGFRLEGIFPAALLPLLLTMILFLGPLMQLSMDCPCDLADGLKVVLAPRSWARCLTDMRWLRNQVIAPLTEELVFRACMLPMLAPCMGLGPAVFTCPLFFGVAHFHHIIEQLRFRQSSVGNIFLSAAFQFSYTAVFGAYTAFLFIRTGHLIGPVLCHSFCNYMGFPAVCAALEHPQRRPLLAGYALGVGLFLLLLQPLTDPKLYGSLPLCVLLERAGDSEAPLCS

Trypsin = Trypsin (Sus scrofa, UniProt P00761); assay: trypsin protease activity blockade – biochemical, quenched peptide fluorescence, cherry-pick, selectivity assay for Rce1 protease inhibitor project, dose response (AID 488789)
[11] = target: T2, Mannose-6-phosphate isomerase (Homo sapiens, UniProt P34949); assay: MPI inhibition at elevated mannose 6-phosphate – biochemical, fluorescence intensity, high mannose 6-phosphate, primary screen (AID 1220)
T2 sequence (P34949 whole entry): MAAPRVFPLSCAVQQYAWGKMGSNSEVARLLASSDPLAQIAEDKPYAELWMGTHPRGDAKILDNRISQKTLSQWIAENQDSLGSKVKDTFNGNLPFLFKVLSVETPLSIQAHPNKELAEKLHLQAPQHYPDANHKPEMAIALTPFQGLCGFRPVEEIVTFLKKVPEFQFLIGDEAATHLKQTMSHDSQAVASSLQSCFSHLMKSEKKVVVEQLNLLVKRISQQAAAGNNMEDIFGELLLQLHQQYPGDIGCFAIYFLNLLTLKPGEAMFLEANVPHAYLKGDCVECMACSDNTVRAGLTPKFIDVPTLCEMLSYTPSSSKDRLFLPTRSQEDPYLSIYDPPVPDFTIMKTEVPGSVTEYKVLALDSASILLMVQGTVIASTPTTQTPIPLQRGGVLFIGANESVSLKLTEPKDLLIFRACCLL

[12] = COV362 cell viability loss – plate reader, dry powder, SA12, cytotoxicity control for PAX8 inhibitor project, dose response (AID 743144); type: functional, cell-based
[13] = OVCAR-3 cell viability loss – plate reader, dry powder samples, PAX8 inhibitor project, dose response (AID 743044); type: functional, cell-based
Paired box protein Pax-8 = Paired box protein Pax-8 (Homo sapiens, UniProt Q06710); assay: PAX8 transcriptional activity inhibition in RMG-I – RMG-I cells, luciferase, cherry-pick, dose response (AID 687027); type: functional, cell-based;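 also: luciferase reporter driven by Pax8 target thyroperoxidase promoter measured by SteadyGlo luminescence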
[14] = OV-90 cell viability loss – plate reader, dry powder, SA8, PAX8 inhibitor project, dose response (AID 743149); type: functional, cell-based
[15] = COV434 cell viability loss – plate reader, dry powder, SA7, cytotoxicity control for PAX8 inhibitor project, dose response (AID 743145); type: functional, cell-based
[16] = inhibitors acting on PAX2 in cells – cell-based, plate reader, dry powder samples, selectivity assay for PAX8 inhibitor project, dose response (AID 743048); type: functional;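 also: HEK293 cells carrying a WT1 promoter luciferase reporter driven by expressed Pax2; potency is for inhibition of Pax2 driven reporter signal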
[17] = PAX8-dependent cell viability loss – plate reader, dry powder, dose response (AID 743049); type: functional, cell-based
[18] = PAX5 cellular inhibition readout – cell-based, plate reader, dry powder samples, selectivity assay for PAX8 inhibitor project, dose response (AID 743047); type: functional;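 also: HEK293 cells carrying a Pax5 driven CD19 promoter luciferase reporter; potency of inhibitors that lower reporter luminescence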
[19] = OVCAR8 cell viability loss – plate reader, dry powder samples, PAX8 project, dose response (AID 743197); type: functional, cell-based; settings: OVCAR-8
[20] = target: Solute carrier family 12 member 2/member 5 (Homo sapiens, UniProt P55011+Q9H2X9); assay: KCC2 and NKCC1 inhibition by rubidium flux, cell-based, NKCC1 counter-screen (AID 1734); type: functional, HEK293
[21] = M. tuberculosis H37Rv growth inhibitors, H37Rv strain (AID 1626); type: functional
[22] = rise of 4N DNA cells, HeLa – IC50, dose response (AID 1117351); type: functional, cell-based
cells = type: functional, cell-based; settings: INS-1E
[23] = IC50 of insulin release inhibition, rat insulinoma INS-1E line, 5 mM glucose, cell-based (AID 1117331); type: functional
[24] = rise of 2N DNA cells, HeLa – IC50, dose response (AID 1117349); type: functional, cell-based

Chain of NAD-dependent protein deacylase sirtuin-5, mitochondrial (Q9NXA8 whole entry): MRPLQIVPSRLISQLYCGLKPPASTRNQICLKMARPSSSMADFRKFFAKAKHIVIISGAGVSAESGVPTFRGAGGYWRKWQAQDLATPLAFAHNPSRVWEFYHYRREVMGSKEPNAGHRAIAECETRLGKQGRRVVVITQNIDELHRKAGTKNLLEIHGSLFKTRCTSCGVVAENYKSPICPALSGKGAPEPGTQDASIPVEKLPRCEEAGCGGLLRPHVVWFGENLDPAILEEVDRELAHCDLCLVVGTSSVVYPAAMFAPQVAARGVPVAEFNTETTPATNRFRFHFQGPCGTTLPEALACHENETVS
Chain of Trypsin (P00761 whole entry): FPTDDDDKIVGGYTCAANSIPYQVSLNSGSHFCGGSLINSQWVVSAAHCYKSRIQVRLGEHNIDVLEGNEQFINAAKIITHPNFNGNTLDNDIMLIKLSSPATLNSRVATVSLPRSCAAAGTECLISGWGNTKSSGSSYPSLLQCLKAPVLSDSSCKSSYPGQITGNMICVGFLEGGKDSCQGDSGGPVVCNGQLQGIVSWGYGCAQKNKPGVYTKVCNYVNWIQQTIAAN
Chain of Paired box protein Pax-8 (Q06710 whole entry): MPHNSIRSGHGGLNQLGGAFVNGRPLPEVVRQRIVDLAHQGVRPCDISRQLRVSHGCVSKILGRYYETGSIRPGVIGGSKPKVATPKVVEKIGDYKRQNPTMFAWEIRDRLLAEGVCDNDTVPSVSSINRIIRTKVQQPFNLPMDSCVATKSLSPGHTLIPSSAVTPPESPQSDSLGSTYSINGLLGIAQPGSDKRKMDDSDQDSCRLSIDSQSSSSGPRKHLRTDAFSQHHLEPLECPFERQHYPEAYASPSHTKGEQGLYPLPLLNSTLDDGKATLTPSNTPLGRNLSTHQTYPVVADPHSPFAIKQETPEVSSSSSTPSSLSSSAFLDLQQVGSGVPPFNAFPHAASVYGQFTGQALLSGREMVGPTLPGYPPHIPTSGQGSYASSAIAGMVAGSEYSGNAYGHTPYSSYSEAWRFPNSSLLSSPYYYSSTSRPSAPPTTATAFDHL

Fc1ccc(Cn2cc(CSc3nnc(C4CCCC4)o3)nn2)cc1
IC90 [1]: 250 µM (active)
IC90 [2]: 2 µM (active)
IC90 [3]: 2 µM (active)

CC(C)(C)[S+]([O-])N1Cc2cc(C(=O)NCc3ccc4c(c3)OCO4)nc(-c3cccc(-c4cc5ccccc5o4)c3)c2[C@H]1CCO (stereo partly drawn)
AC50 [4]: 1.46 µM (active)
AC50 [5]: 2.2 µM (active)
AC50 [6]: 0.361 µM (active)
AC50 [7]: 1.51 µM (active)
AC50 [8]: 1.16 µM (active)
AC50 [9]: 1.21 µM (active)

CC1=Nc2cc(C(=O)O)ccc2Sc2ccc(Br)cc21
AC50 [10]: 18.8 µM (active)

COc1cc2c(C#N)c(N3CCCCC3)nc(N)c2c(N)n1
AC50 (CAAX prenyl protease 2): 20 µM (active)
AC50 (Trypsin): 13.6 µM (active)
IC50 [11]: > 50 µM (not active)

C[C@H](CO)N1C[C@H](C)[C@@H](CN(C)Cc2ccc(C(F)(F)F)cc2)Oc2ccc(NS(=O)(=O)c3ccccc3)cc2CC1=O
AC50 [12]: > 70 µM (inactive)
AC50 [13]: 51.5 µM (active)
AC50 (Paired box protein Pax-8): 10.1 µM (active)
AC50 [14]: 54 µM (active)
AC50 [15]: 46.2 µM (active)
AC50 [16]: 21 µM (active)
AC50 [17]: 53.2 µM (active)
AC50 [18]: 23 µM (active)
AC50 [19]: > 70 µM (inactive)

O=C(OCC(=O)N1CCN(C(=O)c2ccco2)CC1)c1sc2ccccc2c1Cl
IC50 [20]: 24 µM (active)
IC50 [21]: > 100 µM (active)

Cc1ccc(CCn2c3c(c4cc(Cl)ccc42)CN(C)CC3)cn1 [DORASTINE]
IC50 [22]: > 10 µM (inactive)
IC50 (cells): > 33.3 µM (inactive)
IC50 [23]: 4.2 µM (active)
IC50 [24]: > 10 µM (inactive)
